Values quoted from earlier work in PMC7904743, “WIDOCK: a reactive docking protocol for virtual screening of covalent inhibitors” (Journal of Computer-Aided Molecular Design, 2021).
Like-named read-outs stand apart in the source and are kept apart here.

Key:
[1] = thiol reactivity, cited from earlier work
NUDT7 = settings: protein labeling at 200 μM; experimental actives if % labeling higher than 50%; cited from earlier work
OTUB2 = OTUB2 protein labeling; experimental actives if % labeling higher than 50%; cited from earlier work
[2] = natural log of average kinetic rate constant
[3] = natural log of average rate constant

SMILES | ln(avg k) [1, 2] | ln(avg k) [1, 3] | NUDT7 % labeling (NUDT7) [%] | OTUB2 % labeling (OTUB2) [%]
CN(Cc1ccc(F)cc1)C(=O)CCl [PCM-0102939, CN(Cc1ccc(F)cc1)C(=O)CCl] | -16.214 | -16.214 | 0 | 10
O=C(CCl)N1CCOC2CCCCC21 (centres unmarked) [PCM-0102940, O=C(CCl)N1CCOC2CCCCC21] | -15.696 | -15.696 | 0 | 0
CC(C)N(C(=O)CCl)C1CCCCC1 [PCM-0102941, CC(C)N(C(=O)CCl)C1CCCCC1] | -16.528 | -16.528 | 17 | 0
CN(CC12CC3CC(CC(C3)C1)C2)C(=O)CCl [PCM-0102942, CN(CC12CC3CC(CC(C3)C1)C2)C(=O)CCl] | -15.698 | -15.698 | 26 | 10
Cc1nc(C2(NC(=O)CCl)CCCCCC2)no1 [PCM-0102944, Cc1nc(C2(NC(=O)CCl)CCCCCC2)no1] | -17.037 | -17.037 | 0 | 0
CC1CCN(C(=O)CCl)CC1 [PCM-0102945, CC1CCN(C(=O)CCl)CC1] | -16.826 | -16.826 | 0 | 0
N#Cc1ccc(CNC(=O)CCl)cc1 [PCM-0102946, N#Cc1ccc(CNC(=O)CCl)cc1] | -16.364 | -16.364 | 0 | 35
CC(C)N(C(=O)CCl)C1CCCC1 [PCM-0102948, CC(C)N(C(=O)CCl)C1CCCC1] | -16.391 | -16.391 | 13 | 0
Cc1nn(C)c(C)c1NC(=O)CCl [PCM-0102949, Cc1nn(C)c(C)c1NC(=O)CCl] | -16.344 | -16.344 | 0 | 0
O=C(CCl)NCc1ccccn1 [PCM-0102950, O=C(CCl)NCc1ccccn1] | -17.514 | -17.514 | 0 | 0
O=C(CCl)NC1(c2ccc3c(c2)OCCO3)CCCC1 [PCM-0102951, O=C(CCl)NC1(c2ccc3c(c2)OCCO3)CCCC1] | -16.488 | -16.488 | 100 | 0
O=C(CCl)NNC(=O)c1ccc(Cl)cc1 [PCM-0102953, O=C(CCl)NNC(=O)c1ccc(Cl)cc1] | -17.321 | -17.321 | 0 | 18
O=C(CCl)NNC(=O)c1ccccc1Cl [PCM-0102954, O=C(CCl)NNC(=O)c1ccccc1Cl] | -17.060 | -17.060 | 0 | 80
Cc1ccc(NC(=O)CCl)cc1Br [PCM-0102955, Cc1ccc(NC(=O)CCl)cc1Br] | -16.336 | -16.336 | 27 | 14
O=C(Nc1ccccc1)NN(C(=O)CCl)c1ccccc1 [PCM-0102957, O=C(Nc1ccccc1)NN(C(=O)CCl)c1ccccc1] | -15.066 | -15.066 | 100 | 0
CN(Cc1ccc2c(c1)OCCO2)C(=O)CCl [PCM-0102958, CN(Cc1ccc2c(c1)OCCO2)C(=O)CCl] | -16.177 | -16.177 | 27 | 9
Cc1ccc(CNC(=O)CCl)cc1F [PCM-0102959, Cc1ccc(CNC(=O)CCl)cc1F] | -16.344 | -16.344 | 0 | 50
Cc1ccc(C(=O)N2CCN(C(=O)CCl)CC2)cc1 [PCM-0102962, Cc1ccc(C(=O)N2CCN(C(=O)CCl)CC2)cc1] | -15.309 | -15.309 | 0 | 0

SMILES | ln(avg k) [1, 2] | ln(avg k) [1, 3] | NUDT7 % labeling (NUDT7) [%] | OTUB2 % labeling (OTUB2) [%]
CC(=O)c1cccc(NC(=O)CCl)c1 [PCM-0102965, CC(=O)c1cccc(NC(=O)CCl)c1] | -15.751 | -15.751 | 0 | 36
Cc1sc(NC(=O)CCl)c(C)c1C [PCM-0102968, Cc1sc(NC(=O)CCl)c(C)c1C] | -16.020 | -16.020 | 0 | 0
CS(C)(=O)=NC(=O)CCl [PCM-0102969, CS(C)(=O)=NC(=O)CCl] | -15.757 | -15.757 | 0 | 0
O=C(CCl)N1CCN(C(=O)C2CC2)CC1 [PCM-0102970, O=C(CCl)N1CCN(C(=O)C2CC2)CC1] | -15.304 | -15.304 | 7 | 0
CC(c1cc2ccccc2o1)N(C)C(=O)CCl (centres unmarked) [PCM-0102971, CC(c1cc2ccccc2o1)N(C)C(=O)CCl] | -16.092 | -16.092 | 66 | 0
O=C(CCl)N1CCC(C(=O)N2CCCCC2)CC1 [PCM-0102972, O=C(CCl)N1CCC(C(=O)N2CCCCC2)CC1] | -15.512 | -15.512 | 0 | 8
Cc1ccc(CNC(=O)CCl)s1 [PCM-0102973, Cc1ccc(CNC(=O)CCl)s1] | -16.818 | -16.818 | 11 | 75
CC(C)N(C)C(=O)C1CCN(C(=O)CCl)CC1 [PCM-0102974, CC(C)N(C)C(=O)C1CCN(C(=O)CCl)CC1] | -15.247 | -15.247 | 0 | 0
COC(=O)c1cccc(NC(=O)CCl)n1 [PCM-0102977, COC(=O)c1cccc(NC(=O)CCl)n1] | -16.790 | -16.790 | 0 | 0
COC(=O)C1CCN(C(=O)CCl)CC1 [PCM-0102978, COC(=O)C1CCN(C(=O)CCl)CC1] | -16.559 | -16.559 | 0 | 0
CCN(C(=O)CCl)c1ccccc1C [PCM-0102980, CCN(C(=O)CCl)c1ccccc1C] | -16.814 | -16.814 | 43 | 0
CC(C)(C)OC(=O)CNC(=O)CCl [PCM-0102981, CC(C)(C)OC(=O)CNC(=O)CCl] | -17.661 | -17.661 | 0 | 0
Cc1nc(C2(NC(=O)CCl)CCCCC2)no1 [PCM-0102983, Cc1nc(C2(NC(=O)CCl)CCCCC2)no1] | -17.277 | -17.277 | 10 | 0
CN(Cc1ccccc1)C(=O)CCl [PCM-0102984, CN(Cc1ccccc1)C(=O)CCl] | -16.386 | -16.386 | 11 | 0
O=C(CCl)NNC(=O)c1ccco1 [PCM-0102985, O=C(CCl)NNC(=O)c1ccco1] | -17.545 | -17.545 | 0 | 27
CN(Cc1cccc(C(F)(F)F)c1)C(=O)CCl [PCM-0102987, CN(Cc1cccc(C(F)(F)F)c1)C(=O)CCl] | -15.786 | -15.786 | 9 | 0
CN(Cc1nc2ccccc2s1)C(=O)CCl [PCM-0102988, CN(Cc1nc2ccccc2s1)C(=O)CCl] | -15.687 | -15.687 | 30 | 0
